Laboratory results reported in ChEMBL document CHEMBL5653615 (J Biol Chem, 2013).

Tests used:
[1] = target: T1, MAP/microtubule affinity-regulating kinase 4 (Homo sapiens) (UniProt Q96L34); assay: Inhibition of human MARK4 at 18.6 nM by HotSpot assay relative to control
T1 sequence (whole entry): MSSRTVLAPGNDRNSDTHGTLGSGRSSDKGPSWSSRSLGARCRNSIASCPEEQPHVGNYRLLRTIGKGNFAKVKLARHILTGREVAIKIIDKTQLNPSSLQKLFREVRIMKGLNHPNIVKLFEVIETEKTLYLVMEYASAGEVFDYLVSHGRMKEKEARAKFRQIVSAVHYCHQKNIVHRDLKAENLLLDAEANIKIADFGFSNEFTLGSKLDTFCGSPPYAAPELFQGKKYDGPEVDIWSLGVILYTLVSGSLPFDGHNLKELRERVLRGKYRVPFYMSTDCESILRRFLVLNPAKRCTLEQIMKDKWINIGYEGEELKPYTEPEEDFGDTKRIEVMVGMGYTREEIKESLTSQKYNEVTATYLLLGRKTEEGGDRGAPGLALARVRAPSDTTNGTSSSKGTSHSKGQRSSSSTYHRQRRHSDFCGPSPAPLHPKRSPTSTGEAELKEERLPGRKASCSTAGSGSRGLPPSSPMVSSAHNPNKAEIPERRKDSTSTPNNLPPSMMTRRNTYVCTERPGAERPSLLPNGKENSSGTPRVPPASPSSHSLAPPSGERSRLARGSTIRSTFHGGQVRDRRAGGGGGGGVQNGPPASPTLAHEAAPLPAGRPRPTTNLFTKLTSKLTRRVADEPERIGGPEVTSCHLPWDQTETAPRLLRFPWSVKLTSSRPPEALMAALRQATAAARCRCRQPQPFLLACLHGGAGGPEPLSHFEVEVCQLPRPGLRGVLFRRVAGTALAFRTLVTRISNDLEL

[2] = target: Serine/threonine-protein kinase PAK 6 (Homo sapiens) (UniProt Q9NQU5); assay: Inhibition of human PAK6 at 18.6 nM by HotSpot assay relative to control
Sequence of Serine/threonine-protein kinase PAK 6 (Homo sapiens) (Q9NQU5 whole entry, looked up): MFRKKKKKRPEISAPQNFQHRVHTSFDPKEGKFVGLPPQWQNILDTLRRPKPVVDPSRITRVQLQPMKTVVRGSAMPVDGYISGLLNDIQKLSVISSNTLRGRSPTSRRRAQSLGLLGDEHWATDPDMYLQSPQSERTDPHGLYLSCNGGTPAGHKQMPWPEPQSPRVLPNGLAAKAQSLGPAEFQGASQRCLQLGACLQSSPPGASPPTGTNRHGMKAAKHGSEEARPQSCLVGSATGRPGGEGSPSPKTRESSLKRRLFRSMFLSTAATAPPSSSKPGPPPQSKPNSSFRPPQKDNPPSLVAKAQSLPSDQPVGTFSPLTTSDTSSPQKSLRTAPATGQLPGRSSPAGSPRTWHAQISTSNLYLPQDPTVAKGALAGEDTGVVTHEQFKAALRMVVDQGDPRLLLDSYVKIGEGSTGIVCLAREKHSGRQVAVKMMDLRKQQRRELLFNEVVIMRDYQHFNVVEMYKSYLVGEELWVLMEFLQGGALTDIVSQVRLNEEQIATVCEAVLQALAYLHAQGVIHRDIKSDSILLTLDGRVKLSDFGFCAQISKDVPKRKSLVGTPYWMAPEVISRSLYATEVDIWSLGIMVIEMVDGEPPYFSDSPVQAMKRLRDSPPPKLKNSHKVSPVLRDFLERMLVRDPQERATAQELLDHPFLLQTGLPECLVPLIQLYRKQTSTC

[3] = target: Mitogen-activated protein kinase kinase kinase kinase 5 (Homo sapiens) (UniProt Q9Y4K4); assay: Inhibition of human KHS at 18.6 nM by HotSpot assay relative to control
Sequence of Mitogen-activated protein kinase kinase kinase kinase 5 (Homo sapiens) (Q9Y4K4 whole entry, looked up): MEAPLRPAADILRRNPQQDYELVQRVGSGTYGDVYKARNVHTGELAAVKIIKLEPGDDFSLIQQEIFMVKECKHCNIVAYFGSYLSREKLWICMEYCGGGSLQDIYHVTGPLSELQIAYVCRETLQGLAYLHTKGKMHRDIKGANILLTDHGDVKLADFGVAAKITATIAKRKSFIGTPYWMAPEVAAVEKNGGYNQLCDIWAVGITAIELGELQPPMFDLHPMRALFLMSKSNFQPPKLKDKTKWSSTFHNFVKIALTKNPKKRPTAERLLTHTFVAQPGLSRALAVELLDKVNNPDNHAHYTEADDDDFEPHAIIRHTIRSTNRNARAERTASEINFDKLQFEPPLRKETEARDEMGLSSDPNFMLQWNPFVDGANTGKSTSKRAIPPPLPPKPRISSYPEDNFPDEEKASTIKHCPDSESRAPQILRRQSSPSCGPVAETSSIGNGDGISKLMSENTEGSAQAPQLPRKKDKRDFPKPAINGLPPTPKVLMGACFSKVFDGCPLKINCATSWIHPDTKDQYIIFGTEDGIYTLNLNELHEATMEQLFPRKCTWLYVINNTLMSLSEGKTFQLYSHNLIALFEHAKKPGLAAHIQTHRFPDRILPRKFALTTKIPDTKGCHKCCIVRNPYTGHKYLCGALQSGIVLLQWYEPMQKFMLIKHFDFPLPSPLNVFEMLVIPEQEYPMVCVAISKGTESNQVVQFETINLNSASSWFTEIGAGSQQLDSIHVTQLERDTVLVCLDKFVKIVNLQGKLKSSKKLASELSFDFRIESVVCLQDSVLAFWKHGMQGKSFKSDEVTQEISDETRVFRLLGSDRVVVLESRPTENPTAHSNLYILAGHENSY

[4] = target: T2, Calcium/calmodulin-dependent protein kinase type IV (Homo sapiens) (UniProt Q16566); assay: Inhibition of human CAMK4 at 1.82 nM by HotSpot assay relative to control
T2 sequence (whole entry): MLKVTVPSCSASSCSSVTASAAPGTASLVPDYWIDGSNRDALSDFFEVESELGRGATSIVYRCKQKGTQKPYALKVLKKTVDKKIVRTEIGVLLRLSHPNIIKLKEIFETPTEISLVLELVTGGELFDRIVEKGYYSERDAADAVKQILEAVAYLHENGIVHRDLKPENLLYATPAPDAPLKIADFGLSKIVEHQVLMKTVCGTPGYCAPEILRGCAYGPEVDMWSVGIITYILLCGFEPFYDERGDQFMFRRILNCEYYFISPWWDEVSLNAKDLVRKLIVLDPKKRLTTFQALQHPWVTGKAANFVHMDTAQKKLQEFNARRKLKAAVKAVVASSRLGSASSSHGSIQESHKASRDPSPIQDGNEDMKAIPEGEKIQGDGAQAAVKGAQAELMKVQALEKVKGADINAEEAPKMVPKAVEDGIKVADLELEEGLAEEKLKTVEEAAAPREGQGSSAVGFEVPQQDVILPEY

[5] = target: T3, Serine/threonine-protein kinase A-Raf (Homo sapiens) (UniProt P10398); assay: Inhibition of human ARAF at 1.82 nM by HotSpot assay relative to control
T3 sequence (whole entry): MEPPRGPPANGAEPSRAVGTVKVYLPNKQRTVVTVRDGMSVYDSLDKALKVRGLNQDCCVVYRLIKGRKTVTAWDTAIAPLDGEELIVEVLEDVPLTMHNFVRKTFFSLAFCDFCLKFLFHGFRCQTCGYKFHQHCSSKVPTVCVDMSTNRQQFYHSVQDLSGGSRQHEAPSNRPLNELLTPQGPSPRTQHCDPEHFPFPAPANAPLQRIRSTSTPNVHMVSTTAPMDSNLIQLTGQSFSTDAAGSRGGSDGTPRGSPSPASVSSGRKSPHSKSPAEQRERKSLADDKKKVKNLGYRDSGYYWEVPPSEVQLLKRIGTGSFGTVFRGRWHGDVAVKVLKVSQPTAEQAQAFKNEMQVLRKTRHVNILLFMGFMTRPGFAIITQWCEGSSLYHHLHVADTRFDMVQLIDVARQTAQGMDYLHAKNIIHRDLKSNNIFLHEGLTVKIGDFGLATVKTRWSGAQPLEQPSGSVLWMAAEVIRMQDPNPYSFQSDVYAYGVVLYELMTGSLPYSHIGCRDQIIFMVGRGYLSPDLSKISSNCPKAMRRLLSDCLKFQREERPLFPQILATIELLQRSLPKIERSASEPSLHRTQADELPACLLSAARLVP

[6] = target: T4, Dual serine/threonine and tyrosine protein kinase (Homo sapiens) (UniProt Q6XUX3); assay: Inhibition of human RIPK5 at 1.82 nM by HotSpot assay relative to control
T4 sequence (whole entry): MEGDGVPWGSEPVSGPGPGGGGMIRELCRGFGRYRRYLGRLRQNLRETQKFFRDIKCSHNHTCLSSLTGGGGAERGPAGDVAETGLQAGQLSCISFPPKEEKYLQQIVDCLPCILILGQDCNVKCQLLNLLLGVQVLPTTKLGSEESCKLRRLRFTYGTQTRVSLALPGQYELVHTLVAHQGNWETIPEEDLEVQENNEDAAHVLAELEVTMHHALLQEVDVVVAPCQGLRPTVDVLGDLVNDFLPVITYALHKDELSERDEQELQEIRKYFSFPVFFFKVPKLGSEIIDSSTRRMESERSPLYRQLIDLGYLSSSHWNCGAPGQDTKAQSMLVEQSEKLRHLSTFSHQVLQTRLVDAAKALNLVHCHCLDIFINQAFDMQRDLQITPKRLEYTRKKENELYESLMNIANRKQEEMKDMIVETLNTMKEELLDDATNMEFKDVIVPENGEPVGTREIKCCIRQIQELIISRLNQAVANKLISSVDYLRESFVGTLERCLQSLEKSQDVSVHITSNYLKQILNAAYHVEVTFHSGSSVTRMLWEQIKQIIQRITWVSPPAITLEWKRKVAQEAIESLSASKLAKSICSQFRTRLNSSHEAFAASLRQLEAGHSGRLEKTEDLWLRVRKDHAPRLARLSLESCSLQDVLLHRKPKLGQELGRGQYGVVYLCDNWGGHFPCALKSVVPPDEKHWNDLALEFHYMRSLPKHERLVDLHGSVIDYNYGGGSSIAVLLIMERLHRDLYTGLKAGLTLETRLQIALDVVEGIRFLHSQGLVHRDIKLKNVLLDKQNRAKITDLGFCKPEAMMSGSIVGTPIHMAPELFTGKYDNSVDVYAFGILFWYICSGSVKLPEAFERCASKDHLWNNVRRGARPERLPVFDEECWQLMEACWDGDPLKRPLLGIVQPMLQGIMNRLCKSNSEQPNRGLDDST

inhibition [1] | inhibition [2] | inhibition [3] | inhibition [4] | inhibition [5] | inhibition [6] | Compound
7.12% | -8.39% | 12.1% |  |  |  | C[C@]1(O)C[C@@H](c2nc(-c3ccc4ccc(-c5ccccc5)nc4c3)c3c(N)nccn32)C1
 |  |  | 3.45% | 5.85% | 4.61% | C[C@@]1(C(=O)Nc2ccc(F)nc2)CCCN1c1nc(Nc2cc(C3CC3)n[nH]2)c2cccn2n1
